Test results published in patent publication EP1087941B9, “THIOLESTERS AND USES THEREOF” (THE UNITED STATES OF AMERICA, as represented by THE …, priority 1998, dated 1999).
Read-outs that look alike come from different tables or passages of the source.

Legend:
[1] = test system: HIV-1RF; test: XTT cytoprotection assay (antiviral activity); format: cell-based
From the text: (§1) One exemplary means to determine antiviral activity is with CEM-SS cells and virus (e.g., HIV-1RF) (MOI = 0.01) using the XTT (2,3-bis[2-methoxy- 4-nitro-5-sulfophenyl] -5- [(phenylamino)carbonyl]-2H-tetrazolium hydroxide) cytoprotection assay, as described by Rice (1993) PNAS 90:9721-9724, and Rice (1997) Antimicrob. Agents Chemother. 41:419-426. Briefly, cells are infected with HIV-1RF (or other virus to be tested) in the presence of various dilutions of test compounds (thiolesters and controls). The cultures are incubated for seven days. During this time control cultures without protective compounds (i.e., compounds with anti-viral activity) replicate virus, induce syncytia, and result in about 90% cell death. The cell death is measured by XTT dye reduction. XTT is a soluble tetrazolimn dye that measures mitochondrial energy output, similar to MTT. Positive controls using dextran sulfate (an attachment inhibitor) or 3'-Azido -2'-3'-dideoxythymidine, AZT (a reverse transcriptase inhibitor) are added to each assay. Individual assays are done in duplicate using a sister plate method.
(§2) Effective antiviral concentrations providing 50% cytoprotection (EC50), and cellular growth inhibitory concentrations causing 50% cytotoxicity (IC50) are calculated.

[2] = molecular target: T1, recombinant HIV-1 integrase (Human immunodeficiency virus type 1 group M subtype B, UniProt P03366); test: Integrase 3' processing and strand transfer assay; format: biochemical; details: for IC50: Table 7, high dose test of 100 µM, read-out: Integrase I50
T1 construct: The ability of recombinant HIV-1 integrase; S. Hughes, ABL Basic Research NCI-FCRDC, Frederick MD (supplied, not a catalogue product)
Description: The 5-bromovaleroyl thioester, compound 44, and two 5-pyridiniovaleroyl thioesters, compounds 45 and 47, were analyzed in mechanistic and target-based assays. […] Assays for activity against HIV-1 reverse transcriptase rAdT (template/primer) and rCdG (template/primer) using recombinant HIV-1 reverse transcriptase (S. Hughes, ABL Basic Research NCI-FCRDC, Frederick MD) were performed as described by Rice (1997) supra. Substrate cleavage of recombinant HIV-1 protease in the presence of test compounds using an HPLC-based methodology with the artificial substrate Ala-Ser-Glu-Asn-Try- Pro-Ile-Val-amide (Multiple Peptide Systems, San Diego CA) was performed as described by Rice (1997) supra. The ability of recombinant HIV-1 integrase (S. Hughes, ABL Basic Research NCI-FCRDC, Frederick MD) to carry out 3' processing and strand transfer activities in the presence of test compounds was performed as described by Buckheit (1994) AIDS Res. Hum. Retroviruses 10:1497-1506, and Turpin (1998) Antimicrob. Agents Chemother. 42: 487-494.

[3] = molecular target: T2, Sp1 (Homo sapiens, UniProt P08047); test: Sp1 super gel shift EMSA with K562 cell nuclear extracts (specificity); format: biochemical; details: specificity for CCHC versus CCHH zinc finger
T2 construct: K562 cell nuclear extracts, and antibodies for Sp1 (Spl[PEP2]-G); host or cells: K562 cell nuclear extracts
Description: To determine if compound 44, 45 or 47 binding activity was specific for CCHC zinc fingers, a super gel shift EMSA after treatment of K562 cell nuclear extracts with the compounds was performed. This was followed by super shifting with Spl-specific antibody. Spl was chosen because it is a cellular transcription factor that contains three copies of a classical type CCHH zinc finger motif that are required for Sp1 binding to its DNA target. […] Super gel shifting to determine the specificity of zinc finger reactive compounds was carried out using an Sp1 consensus oligomer (Stratagene, La Jolla, CA), K562 cell nuclear extracts, and antibodies for Sp1 (Spl[PEP2]-G) (extracts and Spl Abs from Santa Cruz Biotechnology, Inc., Santa Cruz, CA). The binding reactions of oligonucleotides with K562 nuclear extract, as well as electrophoretic conditions were carried out as described in the Gelshift Buffer Kit, Stratagene, La Jolla, CA.

[4] = molecular target: T3, NCp7 (Human immunodeficiency virus type 1 group M subtype B, UniProt P03347); test: NCp7 binding to packaging-site oligonucleotide, electrophoretic mobility shift assay; format: biochemical, HIV-1; details: for concentration at which NCp7-oligonucleotide complex formation was inhibited: EMSA on nondenaturing polyacrylamide gels; for IC50: Table 9, read-out: Nucleic Acid Binding (I50 µM)
T3 construct: within the nucleocapsid p7 (NCp7) protein portion of the polyprotein
Description: Zinc finger reactivity was measured using a Zn specific fluorochrome, TSQ, N-(6-methoxy-8-quinolyl) -p-toluenesulfonamide, assay or a Trp37 zinc finger fluorescence assay. Fluorescent measurements of the Trp37 residue in the C-terminal finger of recombinant HIV-1 NCp7 protein were performed as described by Rice (1995) Science 270:1194-1197; Rice (1997) Antimicrob. Agents Chemother. 41:419-426. Measurement of Zn ejection from both fingers was measured using the Zn-selective fluorchrome probe TSQ (Molecular Probes, Eugene OR) as described by Rice (1996) J. Med. Chem 39:3606-3616. Measurement of the ability of NCp7 to bind to a DNA oligomer, a 44 mer: GGCGACTGGTGAGTACGCCAAAAATTTTGACTAGCGGAGGCTAG (SEQ ID NO:1), analogous to the HIV-1 RNA packaging site was carried out as described by Huang (1998) J. Med. Chem. 41:1371-1381, see also, Rossio (1998) HIV Pathogenesis and Treatment: Keystone Symposium on Molecular and Cellular Biology, Abstract # 4082. Briefly, 50 nM NCp7 was treated with test compounds for 1 hour at RT in […] buffer containing 10% glycerol and 50 mM Tris-HCl (pH 7.5). Labeled oligomer (0.1 picomole, end labeled [^32P]) was added in an equal volume of buffer containing 10% glycerol, 50 mM Tris-HCl (pH 7.5), 400 mM KCl and 40 mM MgCl2. The reaction was continued for 15 min at room temperature, and a total of […] (or 1/4 of the total reaction volume) was separated on nondenaturing 4.5% polyacrylamide gels in 0.5X Tris-Borate electrophoresis buffer. NCp7-oligomer complexes were visualized by autoradiography.
Interaction of zinc finger inhibitors with NCp7 can result in loss of protein structure and their ability to specifically bind oligonucleotides representing the HIV-1ψ packaging site (Huang (1998) supra; Tummino (1997) Antimicrob. Agents Chemother. 41:394-400; South (1993) Protein Sci. 2:3-19; Dannull (1994) EMBO J. 13:1525-1533). The ability of NCp7 to specifically associate with these oligonucleotides after treatment of the protein with a thiolester of the invention was tested. For example, compounds 44, 45 or 47 were very effective at inhibiting Ncp7's ability to associate with target oligonucleotide, as determined using electrophoretic mobility shift assays (EMSA) on nondenaturing polyacrylamide gels. At 1 µM, compound 45 inhibited complex formation. Compounds 44 and 47 inhibited complex formation at 100 µM (see Table 9).

[5] = test system: CEM-SS cells; test: cells; format: cell-based
From the text: as §1, §2

[6] = Human immunodeficiency virus 1, Table 5, XTT cytoprotection assay, read-out: Antiviral Activity EC50
[7] = Human immunodeficiency virus 1, Table 6, XTT cytoprotection assay, read-out: Antiviral Activity EC50%
[8] = Homo sapiens, CEM-SS, Table 5, 50% cytotoxicity, read-out: Antiviral Activity IC50%
[9] = Homo sapiens, CEM-SS, Table 6, 50% cytotoxicity, read-out: Antiviral Activity IC50

T2 sequence (P08047 whole entry): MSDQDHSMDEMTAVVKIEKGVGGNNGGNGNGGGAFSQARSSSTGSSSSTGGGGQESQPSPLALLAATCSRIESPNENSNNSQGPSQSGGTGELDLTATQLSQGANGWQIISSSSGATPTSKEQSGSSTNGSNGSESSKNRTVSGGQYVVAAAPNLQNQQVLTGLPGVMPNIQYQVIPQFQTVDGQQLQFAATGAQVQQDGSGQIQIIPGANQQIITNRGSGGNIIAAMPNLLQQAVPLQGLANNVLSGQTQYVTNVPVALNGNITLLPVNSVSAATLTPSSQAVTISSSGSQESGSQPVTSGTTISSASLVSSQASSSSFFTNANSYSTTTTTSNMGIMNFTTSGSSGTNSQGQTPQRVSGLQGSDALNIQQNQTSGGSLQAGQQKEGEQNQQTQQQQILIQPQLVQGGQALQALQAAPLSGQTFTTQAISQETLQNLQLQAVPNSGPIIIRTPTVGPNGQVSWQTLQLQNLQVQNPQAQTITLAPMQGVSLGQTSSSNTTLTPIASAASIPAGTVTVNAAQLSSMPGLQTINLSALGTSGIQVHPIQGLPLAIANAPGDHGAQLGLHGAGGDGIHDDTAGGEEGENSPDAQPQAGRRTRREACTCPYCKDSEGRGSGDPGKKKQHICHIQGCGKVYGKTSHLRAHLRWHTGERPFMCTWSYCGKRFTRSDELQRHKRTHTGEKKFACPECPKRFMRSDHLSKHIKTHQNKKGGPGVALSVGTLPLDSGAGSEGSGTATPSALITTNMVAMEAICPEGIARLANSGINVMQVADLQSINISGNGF

## CC(=O)NS(=O)(=O)c1ccc(NC(=O)c2ccccc2SC(=O)CCCCBr)cc1 [Compound 44, N-[2-(5-bromovaleroylthio)benzoyl]sulfacetamide]
[1]; [6]
  EC50: 3.8 µM
[1]; [7]
  EC50: 38 µM
[2]
  inhibition of HIV-1 integrase enzyme activity: did not inhibit
  IC50: > 100 µM
[3]
  effect on super shifting of Sp1 bound to its DNA target: failed to alter the pattern of super shifting
[4]
  concentration at which NCp7-oligonucleotide complex formation was inhibited: 100 µM
  IC50: 100 µM
[5]; [8]
  IC50: 184 µM
[5]; [9]
  IC50: 184 µM

## CC(=O)NS(=O)(=O)c1ccc(NC(=O)c2ccccc2SC(=O)CCCC[n+]2ccccc2)cc1 [Compound 45, N-[2-(5-pyridinio-valeroylthio)benzoyl]sulfacetamide bromide]
[1]; Human immunodeficiency virus 1, read-out: EC50 (concentration inhibiting 50% virus replication)
  EC50: < 10 µM
[1]; [6]
  EC50: 6.2 µM
[1]; [7]
  EC50: 6.2 µM
[2]
  inhibition of HIV-1 integrase enzyme activity: did not inhibit
  IC50: > 100 µM
[3]
  effect on super shifting of Sp1 bound to its DNA target: failed to alter the pattern of super shifting
[4]
  concentration at which NCp7-oligonucleotide complex formation was inhibited: 1 µM
  IC50: 1 µM
[5]; [8]
  IC50: > 316 µM
[5]; [9]
  IC50: > 316 µM
[5]; Table 10, 50% cytotoxicity, read-out: Antiviral Activity IC50%
  IC50: > 316 µM
[5]; high test dose of 316 µM
  toxicity at the high test dose: no toxicity

## O=C(CCCC[n+]1ccccc1)Sc1ccccc1C(=O)Nc1ccc(S(=O)(=O)c2ccc([N+](=O)[O-])cc2)cc1 [Compound 47]
[1]; Human immunodeficiency virus 1, read-out: Antiviral Activity EC50%
  EC50: 5.5 µM
[2]
  inhibition of HIV-1 integrase enzyme activity: did not inhibit
[3]
  effect on super shifting of Sp1 bound to its DNA target: failed to alter the pattern of super shifting
[4]
  concentration at which NCp7-oligonucleotide complex formation was inhibited: 100 µM
[5]; Homo sapiens, CEM-SS, read-out: Antiviral Activity IC50
  IC50: > 316 µM
